In data set [1] the target is T1, human serum albumin (hSA) (Homo sapiens, UniProt P02768).
T1 construct: purchased Albumin Bioscience (Huntsville, AL, USA)
In words: Competitive ITC with hSA saturated with ibuprofen or warfarin. Format: binding. To be noted: for titration profile to hSA saturated with War: 200 μM War; for titration profile to hSA saturated with War / titration profile to Ibu-saturated hSA: PFAS 4 mM titrant; for titration profile to Ibu-saturated hSA: 250 μM Ibu; for preferably occupied hSA binding sites: concluded from stoichiometry and competition with Ibu. Here is the method: (§1) ITC experiments were performed using a Microcal PEAQ-ITC instrument (Malvern Panalytical, Malvern, UK). Both dhSA (110 μM) and ligands (HPFO-DA, C6O4, PFHxA, Ibu, and War, 4 mM solutions) were dissolved in 50 mM NaPi, 100 mM NaCl, pH 7.4. Only in the case of War, 2.5% v/v DMSO was added to the buffer to improve its solubility. All working solutions were properly degassed. Titrations of dhSA with ligands were carried out at different temperatures (298 and 310 K). In each experiment, an initial 0.4 μL injection (excluded from subsequent data analysis) was followed by 25 independent injections of 1.5 μL with a stirring rate of 750 rpm to ensure rapid mixing. A 120 s interval between injections was applied to guarantee the equilibrium at each titration point. Blank experiments (ligands against buffer) were carried out for each ligand and subtracted to corresponding titrations in order to screen dilution heat contributions. Competition experiments were conducted by adding saturating concentrations of albumin-binding drugs (either 250 μM Ibu or 200 μM War) to dhSA in the measure cell and titrating each PFAS (4 mM) with the aforementioned instrumental parameters. Data were analyzed using the MicroCal PEAQ-ITC Evaluation software (Malvern Panalytical, Malvern, UK). Integrated heat signals were fitted to “one set of sites” (C6O4, PFHxA), “two sets of sites” (PFOA), or “sequential” (HPFO-DA) binding models. Values for the binding affinity constant (KA = 1/KD) and enthalpy change (ΔH), together with the stoichiometry of each PFAS-dhSA reaction, were obtained from curve fitting. Free energy and the entropy change (ΔS) were calculated from the Gibbs free energy (ΔG) relationships: ΔG = ΔH – TΔS = −RT ln(KA).
These include ibuprofen (Ibu) and warfarin (War), two well-characterized molecules known to share the same fatty acid-binding sites (FA4 and FA6 for Ibu, FA7 for War) with long-chain PFASs (Figure 2a).[45] Again, the short-chain perfluoroalkyl compound PFHxA was included as the control. […] The results are consistent with those previously reported that identified the ibuprofen-binding pocket as a preferable cavity to lodge polyfluoroalkyl compounds.[45]

Data set [2] addresses T1, human serum albumin (hSA). In words: Isothermal titration calorimetry (ITC) of PFAS binding to defatted hSA. On the procedure: as §1
Data set [3] concerns the target T1, human serum albumin (hSA). In words: Crystal structure of hSA in complex with HPFO-DA and Myr (PDB 7Z57). Format: binding. Conditions: ternary complex hSA-HPFO-DA-Myr, 1:20:5 molar ratio. On the procedure: Crystallization trials of dhSA in complex with HPFO-DA, C6O4 and sodium myristate (Myr) were carried out at 285 K in an MRC maxi 48-well crystallization plate (Hampton Research, Aliso Viejo, CA, USA) using the sitting-drop vapor-diffusion method and the Morpheus MD1–46 protein crystallization screen kit (Molecular Dimensions Ltd., Catcliffe, UK). Droplets of 1.6 μL volume (0.8 μL of protein complex and 0.8 μL of reservoir solution) were set up using an Oryx 8 crystallization robot (Douglas Instruments Ltd., Catcliffe, UK) and equilibrated against 120 μL reservoir solution. In all the cases, best crystals were obtained by streak- or micro-seeding and left for 5–7 days. Crystals of dhSA (1 mM) incubated with a 20-fold molar excess of HPFO-DA (20 mM) and a fivefold molar excess of Myr (5 mM) were obtained using the following precipitant agents: 50 mM bicine, 50 mM Trizma base, 30 mM sodium fluoride, 30 mM sodium bromide, 30 mM sodium iodide, 12.5% v/v MPD, 12.5% w/v PEG 1000, and 12.5% w/v PEG 3350 pH 8.5. […]
The structure was solved by molecular replacement with software PHASER[49] using as a template the model 7AAI.[45] […] Intramolecular and intermolecular hydrogen bond interactions were analyzed by PROFUNC,[53] […]

For data set [4] the following is noted: environmentally exposed human populations; cited from earlier work.
[5] abbreviates: 310 K, sequential binding, first binding event.
Where [6] appears, read: 310 K, sequential binding, second binding event.
Where [7] appears, read: 298 K, two sets of sites, high-affinity sites.
Where [8] appears, read: 298 K, two sets of sites, low-affinity sites.
[9] abbreviates: 310 K, two sets of sites, high-affinity sites.
[10] abbreviates: 310 K, two sets of sites, low-affinity sites.

Values joined by “and” are separate entries in the source; they are usually repeats but may differ in a detail not shown here. Equal values may be shown once. Read-outs that look alike come from different tables or passages of the source.

T1 sequence (P02768 25-609): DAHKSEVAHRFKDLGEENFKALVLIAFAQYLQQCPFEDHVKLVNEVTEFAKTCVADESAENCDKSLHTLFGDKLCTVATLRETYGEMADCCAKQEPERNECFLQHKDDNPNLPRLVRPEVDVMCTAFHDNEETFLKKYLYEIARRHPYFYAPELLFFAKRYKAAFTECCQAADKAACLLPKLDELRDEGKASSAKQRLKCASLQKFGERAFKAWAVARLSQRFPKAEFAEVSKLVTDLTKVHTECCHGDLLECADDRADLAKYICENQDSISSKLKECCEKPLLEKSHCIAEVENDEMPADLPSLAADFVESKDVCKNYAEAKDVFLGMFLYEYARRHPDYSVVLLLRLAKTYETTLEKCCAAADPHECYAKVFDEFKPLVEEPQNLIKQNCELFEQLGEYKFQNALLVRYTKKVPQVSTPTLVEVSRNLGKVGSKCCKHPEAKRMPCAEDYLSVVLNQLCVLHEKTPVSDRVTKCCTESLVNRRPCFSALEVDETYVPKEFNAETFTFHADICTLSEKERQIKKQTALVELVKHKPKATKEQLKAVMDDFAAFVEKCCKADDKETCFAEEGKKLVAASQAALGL

With `O=C(O)C(F)(F)OC1(F)OC(F)(F)OC1(F)OC(F)(F)F` (stereo not drawn) [C6O4, perfluoro ([5-methoxy-1,3-dioxolan-4-yl]oxy) acetic acid], in data set [1], the “titration profile to hSA saturated with War” value (from here on “titration profile … with War”) is “comparable to that of hSA in the absence of competitive drug”, the “titration profile to Ibu-saturated hSA” value is “nearly saturated flat curve” and the “preferably occupied hSA binding sites” value is “FA4 and/or FA6 sites”. In addition, in data set [2] (298 K, one set of sites), the “n (stoichiometry)” value amounted to 1.6 ± 0.2, the ΔG result was “–32.10 kJ/mol”, the ΔH result is reported as “–21.4 ± 1.4 kJ/mol” and the “–TΔS” value is “–10.7 kJ/mol”. In data set [2] (310 K, one set of sites), the “n (stoichiometry)” value was 1.5 ± 0.3, the ΔG entry is given as “–31.70 kJ/mol”, the ΔH result was “–25.8 ± 4.2 kJ/mol” and the “–TΔS” value was 1.7 kJ/mol. The compound further registered a Kd in data set [2] (KD, 298 K, one set of sites) of 2.4 ± 0.1 µM. Also, the Kd in data set [2] (KD, 310 K, one set of sites) is 5.4 ± 2.1 µM.
Turning to `O=C(O)C(F)(OC(F)(F)C(F)(F)C(F)(F)F)C(F)(F)F` (stereo not drawn) [HPFO-DA, 2,3,3,3-tetrafluoro-2-(heptafluoropropoxy) propanoic acid], the “titration profile … with War” value in data set [1] is given as “comparable to that of hSA in the absence of competitive drug”. In data set [1], the “titration profile to Ibu-saturated hSA” value is “nearly saturated flat curve”. Further, the “preferably occupied hSA binding sites” value in data set [1] is “FA4 and/or FA6 sites”. Besides, in data set [3], the “number of distinct binding sites occupied in crystal structure” value is listed as “two”. Further, the “fold lower binding affinity (KD) compared to PFOA high-affinity sites” value in data set [2] (298 K) is recorded as around 47 fold. Moreover, the ΔH2 in data set [2] (298 K, sequential binding, second binding event) is 33.8 kJ/mol and 33.8 ± 1.9 kJ/mol; in data set [2] (setting [6]) it was 28.2 ± 2.8 kJ/mol. In addition, the ΔH1 result in data set [2] (setting [5]) is reported as “–23.2 ± 3.4 kJ/mol”. For the same compound, the “–TΔS1” value in data set [2] (setting [5]) is recorded as “–6.54 kJ/mol”. Besides, in data set [2] (setting [6]), the “–TΔS2” value is “–55.4 kJ/mol”. Moreover, the Kd was 19 ± 1.3 µM in data set [2] (KD1, 298 K, sequential binding, first binding event); 9.9 ± 2.3 µM in data set [2] (KD1, 310 K, sequential binding, first binding event); 27 ± 8.1 µM in data set [2] (KD2, 310 K, sequential binding, second binding event); above 80 µM in data set [2] (human, pH 7.4, KD2, 298 K, sequential binding, second binding event); 84.2 ± 14.6 µM in data set [2] (read-out: KD2, 298 K, sequential binding, second binding event).
`CCCCCCCCCCCCCC(=O)O` [Myr, sodium myristate]: the “number of distinct binding sites occupied in crystal structure” value in data set [3] was “four”.
Regarding `O=C(O)C(F)(F)C(F)(F)C(F)(F)C(F)(F)C(F)(F)F` [PFHxA, Perfluorohexanoic acid], in data set [1], the “titration profile … with War” value is “comparable to that of hSA in the absence of competitive drug”, the “titration profile to Ibu-saturated hSA” value is “nearly saturated flat curve” and the “preferably occupied hSA binding sites” value is listed as “FA4 and/or FA6 sites”. Besides, in data set [2] (298 K, one set of sites), the “n (stoichiometry)” value was 1.02 ± 0.05, the ΔG result is “–30.60 kJ/mol” and the ΔH result is given as “–34.1 ± 7.40 kJ/mol”. In data set [2] (310 K, one set of sites), the “n (stoichiometry)” value is on record as 1.03 ± 0.05, the ΔG entry is on record as “–31.70 kJ/mol”, the ΔH result was “–39.2 ± 2.00 kJ/mol” and the “–TΔS” value is 7.70 kJ/mol. This compound showed a Kd in data set [2] (KD, 298 K, one set of sites) of 4.5 ± 2.1 µM. For the same compound, the Kd in data set [2] (KD, 310 K, one set of sites) turned out to be 5.9 ± 0.7 µM.
Consider `O=C(O)C(F)(F)C(F)(F)C(F)(F)C(F)(F)C(F)(F)C(F)(F)C(F)(F)F` [PFOA, perfluorooctanoic acid], for which, in data set [4], the “average half-life for serum elimination” value was 1–5 years. Also, the results for the “n (stoichiometry)” value in data set [2] (setting [7]), in data set [2] (setting [9]) and in data set [2] (setting [10]) were 0.89 ± 0.30, 0.95 ± 0.2 and 9.5 ± 0.20, respectively. The ΔG result is reported as “–36.10 kJ/mol” in data set [2] (setting [7]), “–26.60 kJ/mol” in data set [2] (setting [8]), “–38.10 kJ/mol” in data set [2] (setting [9]) and “–29.10 kJ/mol” in data set [2] (setting [10]). The “–TΔS” value in data set [2] (setting [7]) was “–17.70 kJ/mol”; in data set [2] (setting [8]), “–28.2 kJ/mol”; in data set [2] (setting [9]), “–21.6 kJ/mol”; in data set [2] (setting [10]) it was “–31.30 kJ/mol”. Also, the values for the ΔH entry in data set [2] (setting [9]) and in data set [2] (setting [10]) were “–16.5 ± 1.9 kJ/mol” and “–2.26 ± 0.75 kJ/mol”, respectively. The Kd amounted to 29.7 ± 1.7 µM in data set [2] (KD, 298 K, two sets of sites, low-affinity sites); 46 ± 2 µM in data set [2] (KD, 310 K, two sets of sites, low-affinity sites); 0.4 ± 0.01 µM in data set [2] (human, pH 7.4, KD, 298 K, two sets of sites, high-affinity sites); 39.3 ± 0.4 µM in data set [2] (human, pH 7.4, KD, 310 K, two sets of sites, high-affinity sites).
As to `O=S(=O)(O)C(F)(F)C(F)(F)C(F)(F)C(F)(F)C(F)(F)C(F)(F)C(F)(F)C(F)(F)F` [PFOS, perfluorooctanesulfonic acid], the “average half-life for serum elimination” value in data set [4] is on record as 1–5 years.
